PMC12251549, “Engineering a Radiohybrid PSMA Ligand with an Albumin-Binding Moiety and Pharmacokinetic Modulation via an Albumin-Binding Competitor for Radiotheranostics” (Molecules, 2025)

How the values were obtained:
[1] = system: PSMA-expressing LNCaP cells; assay: Cellular uptake and internalization in LNCaP cells, blocking with 2-PMPA; format: cell-based
Procedure: Cellular uptake experiments were performed according to a previous report with slight modifications. LNCaP cells expressing PSMA were cultured in RPMI 1640 medium containing 10% fetal bovine serum (FBS) and 1% penicillin–streptomycin on 6-well culture plates (containing 5 × 10^5 cells/well) for 24 h in a humidified atmosphere (5% CO2) incubator at 37 °C. After removing the medium and washing with phosphate-buffered saline (PBS) (−) once, a mixed solution of [^125I]5 and [^211At]6, [^125I]5 and [^67Ga]Ga-PSMA-617, and [^125I]5 and [^67Ga]5 in 1.0 mL of medium without FBS was added (3.7 kBq/each tracer/well). The final concentrations of the radioligands for [^125I]5, [^211At]6, and [^67Ga]5 were 45.5 pM, 0.2 pM, and 2.5 pM, respectively. These solutions containing radioligands were diluted in saline containing 0.05% (w/v) bovine serum albumin (BSA) to prevent adsorption to tubes or plates and further diluted with medium to 0.00125% as the final BSA concentration. After incubation for 10, 60, and 120 min, the medium from each well was removed, and the cells were washed twice with ice-cold PBS (−); the surface of the cells was washed twice with ice-cold 0.2 M glycine buffer (pH 3.0). The cells were lysed using a 1 M NaOH aqueous solution. The radioactivity of ^67Ga,^125I and ^211At in the 1 M NaOH aqueous solution was determined and defined as the internalized radioligand fraction using an auto well gamma counter (ARC-8001, Hitachi, Ltd., Tokyo, Japan) according to a previous paper. The radioactivity was determined with an auto well gamma counter and corrected for background radiation and physical decay during counting. A window from 16 to 69 keV was used for counting ^125I, and a window from 70 to 120 keV was used for counting ^211At. Correlation factors to eliminate any crossover of ^125I activity in the ^211At counts were determined by measuring the ^125I standard in each window. More than one week after the experiments, the radioactivity counts of ^125I were measured after the decay of ^211At. The protein amount in cells was quantified using a BCA Protein Assay Kit (Nacalai Tesque, Kyoto, Japan) according to the manufacturer’s protocol. All data were expressed as percent dose per milligram protein (%dose/mg protein). In blocking experiments, a selective inhibitor of the PSMA, (2S)-2-(phosphonomethyl)pentanedioic acid (2-PMPA) (final concentration 100 µM), was added to each well with tracers. After incubation for 10, 60, and 120 min, radioactivity and protein concentration were determined in the same manner as the experiment without the blocking agent.

[2] = In vitro stability test in 0.1 M phosphate buffer; format: physicochemical; details: 0.1 M PB solution containing 10% ethanol, 37 °C, 24 h, mean ± SD for three samples
Procedure: samples were analyzed by RP-HPLC using a Cosmosil 5C18-AR-II (4.6 × 150 mm) at a flow rate of 1 mL/min with a gradient mobile phase of 60% methanol in water with 0.1% trifluoroacetic acid (TFA) to 80% methanol in water with 0.1% TFA for 20 min.
In vitro stability test in 0.1 M PB solution containing 10% ethanol was performed. The […]
and 97.1 ± 0.9% (mean ± SD for three samples) after incubating at 37 °C for 24 h, […]

[3] = Biodistribution after intravenous co-injection of [125I]5 and [67Ga]Ga-PSMA-617 (Table S1); format: in vivo, normal mice (ddY); details: normal mice; for Biodistribution of radioactivity: Blood / Biodistribution of radioactivity: Bone / Biodistribution of radioactivity: Brain / Biodistribution of radioactivity: Heart / Biodistribution of radioactivity: Kidney / Biodistribution of radioactivity: L. Intestine / Biodistribution of radioactivity: Liver / Biodistribution of radioactivity: Lung / Biodistribution of radioactivity: Muscle / Biodistribution of radioactivity: Neck / Biodistribution of radioactivity: Pancreas / Biodistribution of radioactivity: S. Intestine / Biodistribution of radioactivity: Spleen / Biodistribution of radioactivity: Stomach: i.v.
Procedure: [^67Ga]Ga-PSMA-617 (37 kBq) and [^125I]5 (37 kBq) or [^125I]5 (37 kBq) and [^211At]6 (37 kBq) were intravenously co-administered into three or four normal mice at each timepoint (6 weeks male ddY mice, 28–30 g, Japan SLC, Inc., Hamamatsu, Japan). Mice were sacrificed at 10 min, 1 h, 4 h, and 24 h ([^67Ga]Ga-PSMA-617 and [^125I]5) or at 10 min, 1 h, 4 h, 12 h, and 24 h ([^125I]5 and [^211At]6) postinjection of the radiolabeled compounds. Tissues of interest were removed and weighed, and the radioactivity of ^67Ga and ^125I and ^125I and ^211At were determined with an auto well gamma counter (ARC-8001) and corrected for background radiation as described in the Cellular Uptake Experiments Section. To determine the amount and routes of the radioactivity excreted from the body for 24 h after the injection of radiolabeled compounds, mice were housed in metabolic cages (METABOLICA, SUGIYAMA-GEN Co., Ltd., Tokyo, Japan). Data are shown as the percentage of injected dose per gram of tissues (%ID/g) or %ID.

## O=C([O-])CN1CCN(CC(=O)[O-])CCN(CC(=O)NC(CCCCNC(=O)CCCc2ccc(I)cc2)C(=O)NCC2CCC(C(=O)NC(Cc3ccc4ccccc4c3)C(=O)NCCCCC(NC(=O)NC(CCC(=O)O)C(=O)O)C(=O)O)CC2)CCN(CC(=O)[O-])CC1.[67Ga+3] (centres unmarked) [[^67Ga]5]
[1]; 2-PMPA 100 µM
  Effect of excess 2-PMPA on cellular uptake: significantly reduced
[2]
  Radiochemical purity after incubation (in vitro stability): 93.1 ± 0.9%

## O=C([O-])CN1CCN(CC(=O)[O-])CCN(CC(=O)NCC2CCC(C(=O)NC(Cc3ccc4ccccc4c3)C(=O)NCCCCC(NC(=O)NC(CCC(=O)O)C(=O)O)C(=O)O)CC2)CCN(CC(=O)[O-])CC1.[67Ga+3] (centres unmarked) [[^67Ga]Ga-PSMA-617, reference compound]
[1]
  Cellular uptake and internalization levels compared with [125I]5 and [211At]6: lower
[3]; 1 h postinjection
  Clearance from organs: rapid clearance from most organs except the kidney
[3]; 24 h postinjection
  Excretion in feces: 2.4 ± 0.3 %ID
  Excretion in urine: 58.0 ± 2.6 %ID
[3]; 10 min after injection
  Biodistribution of radioactivity: Blood: 3.40 (0.42) % injected dose per gram
  Biodistribution of radioactivity: Bone: 1.02 (0.23) % injected dose per gram
  Biodistribution of radioactivity: Brain: 0.11 (0.02) % injected dose per gram
  Biodistribution of radioactivity: Heart: 1.22 (0.11) % injected dose per gram
  Biodistribution of radioactivity: Kidney: 69.46 (8.76) % injected dose per gram
  Biodistribution of radioactivity: L. Intestine: 0.58 (0.07) % injected dose per gram
  Biodistribution of radioactivity: Liver: 0.74 (0.10) % injected dose per gram
  Biodistribution of radioactivity: Lung: 2.60 (0.40) % injected dose per gram
  Biodistribution of radioactivity: Muscle: 0.75 (0.08) % injected dose per gram
  Biodistribution of radioactivity: Neck: 0.02 (0.01) % injected dose
  Biodistribution of radioactivity: Pancreas: 1.03 (0.18) % injected dose per gram
  Biodistribution of radioactivity: S. Intestine: 0.75 (0.03) % injected dose per gram
  Biodistribution of radioactivity: Spleen: 0.96 (0.09) % injected dose per gram
  Biodistribution of radioactivity: Stomach: 0.38 (0.02) % injected dose
[3]; 1 h after injection
  Biodistribution of radioactivity: Blood: 0.29 (0.04) % injected dose per gram
  Biodistribution of radioactivity: Bone: 0.18 (0.04) % injected dose per gram
  Biodistribution of radioactivity: Brain: 0.02 (0.00) % injected dose per gram
  Biodistribution of radioactivity: Heart: 0.11 (0.00) % injected dose per gram
  Biodistribution of radioactivity: Kidney: 16.32 (3.17) % injected dose per gram
  Biodistribution of radioactivity: L. Intestine: 0.07 (0.01) % injected dose per gram
  Biodistribution of radioactivity: Liver: 0.18 (0.07) % injected dose per gram
  Biodistribution of radioactivity: Lung: 0.28 (0.03) % injected dose per gram
  Biodistribution of radioactivity: Muscle: 0.09 (0.00) % injected dose per gram
  Biodistribution of radioactivity: Neck: 0.00 (0.00) % injected dose
  Biodistribution of radioactivity: Pancreas: 0.14 (0.03) % injected dose per gram
  Biodistribution of radioactivity: S. Intestine: 0.16 (0.02) % injected dose per gram
  Biodistribution of radioactivity: Spleen: 0.14 (0.01) % injected dose per gram
  Biodistribution of radioactivity: Stomach: 0.07 (0.02) % injected dose
[3]; 4 h after injection
  Biodistribution of radioactivity: Blood: 0.07 (0.01) % injected dose per gram
  Biodistribution of radioactivity: Bone: 0.14 (0.05) % injected dose per gram
  Biodistribution of radioactivity: Brain: 0.01 (0.00) % injected dose per gram
  Biodistribution of radioactivity: Heart: 0.04 (0.02) % injected dose per gram
  Biodistribution of radioactivity: Kidney: 1.54 (0.08) % injected dose per gram
  Biodistribution of radioactivity: L. Intestine: 0.59 (0.79) % injected dose per gram
  Biodistribution of radioactivity: Liver: 0.08 (0.01) % injected dose per gram
  Biodistribution of radioactivity: Lung: 0.06 (0.01) % injected dose per gram
  Biodistribution of radioactivity: Muscle: 0.02 (0.01) % injected dose per gram
  Biodistribution of radioactivity: Neck: 0.00 (0.00) % injected dose
  Biodistribution of radioactivity: Pancreas: 0.04 (0.02) % injected dose per gram
  Biodistribution of radioactivity: S. Intestine: 0.22 (0.17) % injected dose per gram
  Biodistribution of radioactivity: Spleen: 0.05 (0.01) % injected dose per gram
  Biodistribution of radioactivity: Stomach: 0.07 (0.04) % injected dose
[3]; 24 h after injection
  Biodistribution of radioactivity: Blood: 0.01 (0.00) % injected dose per gram
  Biodistribution of radioactivity: Bone: 0.16 (0.04) % injected dose per gram
  Biodistribution of radioactivity: Brain: 0.00 (0.00) % injected dose per gram
  Biodistribution of radioactivity: Heart: 0.01 (0.01) % injected dose per gram
  Biodistribution of radioactivity: Kidney: 0.29 (0.06) % injected dose per gram
  Biodistribution of radioactivity: L. Intestine: 0.15 (0.11) % injected dose per gram
  Biodistribution of radioactivity: Liver: 0.04 (0.01) % injected dose per gram
  Biodistribution of radioactivity: Lung: 0.02 (0.01) % injected dose per gram
  Biodistribution of radioactivity: Muscle: 0.01 (0.00) % injected dose per gram
  Biodistribution of radioactivity: Neck: 0.00 (0.00) % injected dose
  Biodistribution of radioactivity: Pancreas: 0.02 (0.01) % injected dose per gram
  Biodistribution of radioactivity: S. Intestine: 0.04 (0.03) % injected dose per gram
  Biodistribution of radioactivity: Spleen: 0.03 (0.01) % injected dose per gram
  Biodistribution of radioactivity: Stomach: 0.05 (0.04) % injected dose
